Where two headings read alike, the source gives them in different places.
How the values were obtained:
[1] = system: ovarian cancer cells (PA-1); assay: Cancer cell line growth inhibition, Sulforhodamine B assay, PA-1; type: cell-based; details: 120 h, PA-1, 5 days, SRB, read-out: Cancer Cell Line GI50 Range PA-1
Method: (§1) Breast cancer cells (MDA-MB-231 and MDA-MB-468), colon cancer cells (HCT116) and ovarian cancer cells (PA-1 and OVCAR-3) were seeded (1000 to 4000 in 80 μl per well depending on the cell growth rate) into 96 well plates 24 hours before compound overlay. Compounds were prepared as 10 mM stock solutions in 100% DMSO which were diluted with DMEM (Dulbecco's Modified Eagle's Medium) cell growth Medium (Invitrogen, Burlington, ON, Canada) containing 10% FBS (Fetal Bovine Serum) to concentrations ranging from 50 nM to 250 μM. Aliquots (20 μl) from each concentration were overlaid to 80 μl of the pre-seeded cells in the 96 well plates to make final concentrations of 10 nM to 50 μM. The cells were cultured for 5 days before the Sulforhodamine B assay (SRB) was performed to determine the compound's cell growth inhibition activity.
(§2) Sulforhodamine B (purchased from Sigma, Oakville, ON, Canada) is a water-soluble dye that binds to the basic amino acids of the cellular proteins. Thus, colorimetric measurement of the bound dye provides an estimate of the total protein mass that is related to the cell number. the cells are fixed in situ by gently aspirating off the culture media and adding 50 μl ice cold 10% Trichloroacetic Acid (TCA) per well and incubate at 4° C. for 30-60 min, The plates are washed with H2O five times and allowed to air dry for 5 min. Addition of 50 μl 0.4% (w/v) SRB solution in 1% (v/v) acetic acid to each well and incubation for 30 min at RT completes the staining reaction. Following staining, plates are washed four times with 1% acetic acid to remove unbound dye and then allowed to air dry for 5 min. The stain is solubilized with 100 μl of 10 mM Tris pH 10.5 per well. Absorbance is read at 570 nm.
(§3) The percentage (%) of relative growth inhibition was calculated by comparing to DMSO treated only cells (100%). GI50's were determined for compounds with cytotoxic activity. The GI50 was calculated using GraphPad PRISM software (GraphPad Software, Inc., San Diego, Calif., USA).
In Table 1 below, GI50 value ranges for compound examples against breast cancer cell lines (MDA-MB-468), colon cancer cell lines (HCT116) and ovarian cancer cell lines (PA-1) are given.
(§4) In Table 2 below, GI50 value ranges for compound examples against breast cancer cell lines (MDA-MB-231), colon cancer cell lines (HCT116) and ovarian cancer cell lines (PA-1) are given.

[2] = system: breast cancer cells (MDA-MB-231); assay: Cancer cell line growth inhibition, Sulforhodamine B assay, MDA-MB-231; type: cell-based; details: Homo sapiens, 120 h; Table 2; MDA-MB-231, 5 days, SRB; read-out: Cancer Cell Line GI50 Range MDA-MB-231
Method: as §1, §2, §3, §4

human TTK = target: T1, human TTK (Homo sapiens, UniProt P33981); assay: TTK inhibition assay (indirect ELISA); type: biochemical; details: 16 μM ATP (asterisk), read-out: TTK IC50 Range
T1 construct: Active TTK was purchased from Invitrogen as an amino terminal GST fusion of full length human TTK; purchased Invitrogen
T1 sequence (P33981 1-857): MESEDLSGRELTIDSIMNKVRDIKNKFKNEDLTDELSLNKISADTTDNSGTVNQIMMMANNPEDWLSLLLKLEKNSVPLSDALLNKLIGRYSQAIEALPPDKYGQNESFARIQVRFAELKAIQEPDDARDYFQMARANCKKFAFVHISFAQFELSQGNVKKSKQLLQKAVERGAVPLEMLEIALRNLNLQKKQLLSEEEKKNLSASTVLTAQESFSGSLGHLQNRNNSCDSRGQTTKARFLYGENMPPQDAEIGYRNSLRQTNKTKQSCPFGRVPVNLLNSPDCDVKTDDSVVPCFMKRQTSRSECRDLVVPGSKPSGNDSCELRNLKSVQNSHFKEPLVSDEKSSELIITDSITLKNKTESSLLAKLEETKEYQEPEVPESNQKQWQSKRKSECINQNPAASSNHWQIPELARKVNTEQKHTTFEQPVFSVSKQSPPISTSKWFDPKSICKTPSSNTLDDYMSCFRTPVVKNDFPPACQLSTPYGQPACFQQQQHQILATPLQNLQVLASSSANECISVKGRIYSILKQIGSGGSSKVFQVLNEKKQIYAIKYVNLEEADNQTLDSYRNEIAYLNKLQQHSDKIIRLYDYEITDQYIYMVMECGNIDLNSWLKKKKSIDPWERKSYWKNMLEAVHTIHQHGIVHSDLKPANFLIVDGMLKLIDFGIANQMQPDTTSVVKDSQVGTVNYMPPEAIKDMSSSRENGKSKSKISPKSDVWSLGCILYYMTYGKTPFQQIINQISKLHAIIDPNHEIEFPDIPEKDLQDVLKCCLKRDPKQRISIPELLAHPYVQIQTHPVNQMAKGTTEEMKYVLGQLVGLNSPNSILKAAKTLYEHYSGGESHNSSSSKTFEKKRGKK
How it was run: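 Activity detected by indirect ELISA after compounds sat with full-length GST-TTK for 5 min prior to starting the reaction with ATP. IC50 came from a four-parameter logistic curve of % inhibition, calculated against background and uninhibited control wells.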

[3] = system: colon cancer cells (HCT116); assay: Cancer cell line growth inhibition, Sulforhodamine B assay, HCT116; type: cell-based; details: Homo sapiens, HCT-116, 120 h, HCT116, 5 days, SRB, read-out: Cancer Cell Line GI50 Range HCT116
How it was run: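 HCT116 cells, 1000–4000 per well, seeded 24 h ahead, then treated 5 days with compound at 10 nM to 50 μM final in DMEM with 10% FBS. Growth measured by sulforhodamine B staining after TCA fixation, A570; GI50 from inhibition relative to DMSO-only cells.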

[4] = system: Colon 12 tumor initiating cells; assay: Tumor-initiating cell growth inhibition, Alamar Blue assay, colon TICs; type: cell-based; details: 216 h; Table 1; colon TICs, 9 days, Alamar Blue; read-out: Tumor Initiating Cell GI50 Range Colon 12
How it was run: (§5)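 Colon TICs (4,000/well, non-TC plates) and ovarian TICs (1,000/well, TC plates) kept in serum-free DMEM:F12 with B-27, heparin, bFGF and EGF. Compound added after 24 h at 0.1% DMSO, then 9 days (colon) or 6 days (ovarian) at 37° C. GI50 from Alamar Blue fluorescence (ex 544/em 590) after 4 h.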

[5] = system: Ovarian 2393A tumor initiating cells; assay: Tumor-initiating cell growth inhibition, Alamar Blue assay, ovarian TICs; type: cell-based; details: 144 h; Table 1; ovarian TICs, 6 days, Alamar Blue; read-out: Tumor Initiating Cell GI50 Range Ovarian 2393A
How it was run: as §5

[6] = system: breast cancer cells (MDA-MB-468); assay: Cancer cell line growth inhibition, Sulforhodamine B assay, MDA-MB-468; type: cell-based; details: Homo sapiens, MDA-MB-468, 120 h, Table 1; MDA-MB-468, 5 days, SRB; read-out: Cancer Cell Line GI50 Range MDA-MB-468
How it was run: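 MDA-MB-468 cells exposed 5 days to compound at final 10 nM to 50 μM in DMEM with 10% FBS. Growth measured by sulforhodamine B protein staining after TCA fixation, absorbance 570 nm; inhibition relative to DMSO-only cells, GI50 determined for cytotoxic compounds.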

SMILES	GI50 ([1]; Table 2) [µM]	GI50 [2] [µM]	IC50 (human TTK; Table 2) [µM]	GI50 ([3]; Table 2) [µM]	GI50 [4] [µM]	GI50 [5] [µM]	GI50 ([1]; Table 1) [µM]	GI50 [6] [µM]	IC50 (human TTK; Table 1) [µM]	GI50 ([3]; Table 1) [µM]
O=C(NC1CC1)c1ccc(-c2cnn3c(NCCN4CCOCC4)nc(Oc4ccccc4)nc23)cc1 [Example A7, N-cyclopropyl-4-(4-((2-morpholinoethyl)amino)-2-phenoxypyrazolo[1,5-a][1,3,5]triazin-8-yl)benzamide]					> 0.5	> 0.5	0.1 to 0.5	> 0.5	< 0.1	> 0.5
O=C(NC1CC1)c1ccc(-c2cnn3c(NCC4CCOCC4)nc(OC4CCOCC4)nc23)cc1Cl [Example A14, 2-chloro-N-cyclopropyl-4-(4-(((tetrahydro-2H-pyran-4-yl)methyl)amino)-2-((tetrahydro-2H-pyran-4-yl)oxy)pyrazolo[1,5-a][1,3,5]triazin-8-yl)benzamide]					> 0.5	> 0.5	0.1 to 0.5	> 0.5	< 0.1	0.1 to 0.5
O=C(NC1CC1)c1ccc(-c2cnn3c(NCC4CCOCC4)nc(N4CCOCC4)nc23)cc1Cl [Example A6, 2-chloro-N-cyclopropyl-4-(2-morpholino-4-(((tetrahydro-2H-pyran-4-yl)methyl)amino)pyrazolo[1,5-a][1,3,5]triazin-8-yl)benzamide]					0.1 to 0.5	0.1 to 0.5	≤ 0.1	> 0.5	< 0.1	0.1 to 0.5
O=C(NC1CC1)c1ccc(-c2cnn3c(NCC4CCOCC4)nc(NC4CCCC4)nc23)cc1 [Example A15, 4-(2-(cyclopentylamino)-4-(((tetrahydro-2H-pyran-4-yl)methyl)amino)pyrazolo[1,5-a][1,3,5]triazin-8-yl)-N-cyclopropylbenzamide]					0.1 to 0.5	0.1 to 0.5	0.1 to 0.5	> 0.5	< 0.1	0.1 to 0.5
O=C(NC1CC1)c1ccc(-c2cnn3c(NCC4CCOCC4)nc(OC4CCCC4)nc23)cc1Cl [Example A5, 2-chloro-4-(2-(cyclopentyloxy)-4-(((tetrahydro-2H-pyran-4-yl)methyl)amino)pyrazolo[1,5-a][1,3,5]triazin-8-yl)-N-cyclopropylbenzamide]					0.1 to 0.5	> 0.5	0.1 to 0.5	> 0.5	< 0.1	0.1 to 0.5
O=C(NC1CC1)c1ccc(-c2cnn3c(NCC4CCOCC4)nc(Oc4ccccc4)nc23)cc1Cl [Example A4, 2-Chloro-N-cyclopropyl-4-(2-phenoxy-4-(((tetrahydro-2H-pyran-4-yl)methyl)amino)pyrazolo[1,5-a][1,3,5]triazin-8-yl)benzamide]					≤ 0.1	0.1 to 0.5	0.1 to 0.5	0.1 to 0.5	< 0.1	0.1 to 0.5

Results, then the molecule that gave them:

GI50 ([1]; Table 2) [µM]	GI50 [2] [µM]	IC50 (human TTK; Table 2) [µM]	GI50 ([3]; Table 2) [µM]	GI50 [4] [µM]	GI50 [5] [µM]	GI50 ([1]; Table 1) [µM]	GI50 [6] [µM]	IC50 (human TTK; Table 1) [µM]	GI50 ([3]; Table 1) [µM]	SMILES
≤ 0.1	≤ 0.1	< 0.1	≤ 0.1							Cc1cc(-c2cnn3c(NC[C@H]4CC[C@H](O)CC4)cc(Oc4ccccc4)nc23)ccc1C(=O)NC1CC1 [Example B31, N-cyclopropyl-4-(7-((((1r,4r)-4-hydroxycyclohexyl)-methyl)amino)-5-phenoxypyrazolo[1,5-a]pyrimidin-3-yl)-2-methylbenzamide]
≤ 0.1	≤ 0.1	< 0.1	≤ 0.1							Cc1cc(-c2cnn3c(NCCC4CCOCC4)cc(Oc4cccnc4)nc23)ccc1C(=O)NC1CC1 [Example B22, N-cyclopropyl-2-methyl-4-(5-(pyridin-3-yloxy)-7-((2-(tetrahydro-2H-pyran-4-yl)ethyl)amino)pyrazolo[1,5-a]pyrimidin-3-yl)benzamide]
0.1 to 0.5	0.1 to 0.5	< 0.1	0.1 to 0.5							Cc1cc(-c2cnn3c(NCC4CCOCC4)cc(OC4CCCCC4)nc23)ccc1C(=O)NC1CC1 [Example B23, 4-(5-(cyclohexyloxy)-7-(((tetrahydro-2H-pyran-4-yl)methyl)amino)pyrazolo[1,5-a]pyrimidin-3-yl)-N-cyclopropyl-2-methylbenzamide]
≤ 0.1	≤ 0.1	< 0.1	≤ 0.1							Cc1cc(-c2cnn3c(NCC(C)C)cc(Oc4cccnc4)nc23)ccc1C(=O)NC1CC1 [Example B25, N-cyclopropyl-4-(7-(isobutylamino)-5-(pyridin-3-yloxy)pyrazolo[1,5-a]pyrimidin-3-yl)-2-methylbenzamide]
≤ 0.1	≤ 0.1	< 0.1	≤ 0.1							Cc1cc(-c2cnn3c(NCC4CCOCC4)cc(NC4CCCCC4)nc23)ccc1C(=O)NC1CC1 [Example B24, 4-(5-(cyclohexylamino)-7-(((tetrahydro-2H-pyran-4-yl)methyl)amino)pyrazolo[1,5-a]pyrimidin-3-yl)-N-cyclopropyl-2-methylbenzamide]
0.1 to 0.5	0.1 to 0.5	< 0.1	0.1 to 0.5							Cc1cc(-c2cnn3c(NCC4CCOCC4)cc(N4CCOCC4)nc23)ccc1C(=O)NC1CC1 [Example B11, N-cyclopropyl-2-methyl-4-(5-morpholino-7-(((tetrahydro-2H-pyran-4-yl)methyl)amino)pyrazolo[1,5-a]pyrimidin-3-yl)benzamide]

Reference: US9573954B2, “Pyrazolopyrimidine compounds” (University Health Network, priority 2012, dated 2017)
